Assay results as given in PubChem BioAssay (NCI).
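Growth conditions: 96-well plates. Treatment: test compound, 48 hours, 5 concentrations. Analysis: linear interpolation between bracketing concentrations; unreached endpoints set to highest concentration. Abbreviation: GI50, concentration required for 50% inhibition of growth. TGI marks complete inhibition of growth.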

How the values were obtained:
Assay in all cases: NCI anticancer screen, dose series, 48 h
UACC-257 melanoma = test system: UACC-257 melanoma
SF-268 CNS = test system: SF-268 CNS
SN12C renal = test system: SN12C renal
MOLT-4 leukemia = test system: MOLT-4 leukemia
OVCAR-8 ovarian = test system: OVCAR-8 ovarian
NCI-H23 lung = test system: NCI-H23 lung
HOP-62 NSCLC = test system: HOP-62 NSCLC
OVCAR-3 ovarian = test system: OVCAR-3 ovarian
SK-MEL-2 melanoma = test system: SK-MEL-2 melanoma
SK-MEL-28 melanoma = test system: SK-MEL-28 melanoma

Structure (SMILES)	TGI (UACC-257 melanoma) [µM]	TGI (SF-268 CNS) [µM]	TGI (SN12C renal) [µM]	TGI (MOLT-4 leukemia) [µM]	TGI (OVCAR-8 ovarian) [µM]	TGI (NCI-H23 lung) [µM]	TGI (HOP-62 NSCLC) [µM]	TGI (OVCAR-3 ovarian) [µM]	TGI (SK-MEL-2 melanoma) [µM]	TGI (SK-MEL-28 melanoma) [µM]	GI50 (UACC-257 melanoma) [µM]	GI50 (SF-268 CNS) [µM]	GI50 (SN12C renal) [µM]	GI50 (MOLT-4 leukemia) [µM]	GI50 (OVCAR-8 ovarian) [µM]	GI50 (NCI-H23 lung) [µM]	GI50 (SK-MEL-28 melanoma) [µM]	GI50 (HOP-62 NSCLC) [µM]	GI50 (OVCAR-3 ovarian) [µM]	GI50 (SK-MEL-2 melanoma) [µM]
CCn1cc(C(c2ccc(Cl)cc2)n2ccnc2)c2cc(Br)ccc21 (stereo not given)	31.4	27.4	> 100	> 100	31.6	31.1	28.6	22.2	38.8											
COC1OC(=O)[C@H]2O[N+]([O-])=C(C)[C@@H]12 (stereo not given in full)	> 100	> 100	> 100	> 100	> 100	> 100	> 100	> 100	> 100	> 100										
C/C(=N\NC(=S)NC(C)C)c1nc2ncccc2[nH]1	> 100	> 100	> 100	> 100	52.7		> 64.2	> 100	> 77.6	> 100										
O=C1CC(=O)N(c2ccccc2)N1/C(=C/c1ccccc1)c1ccccc1	59.2	36.3	44.8	6.54	45.3	65.4	54.5	57.1	69	26										
C=CC(=O)Nc1cccc(-c2nc(SC)nc(Nc3ccccc3OC)c2C#N)c1	8.78	14.3	8.15	83.5	5.42	5.99	6.17	3.58	8.58	5.71	2.53	2.85	2.5	2.62	2.07	2.15	2.29	2.25	1.87	2.56
Nc1ccccc1Nc1ccccc1C(=O)[O-].Nc1ccccc1Nc1ccccc1C(=O)[O-].[Cu+2]	> 100	> 100	> 100	> 100	> 100	> 100	> 100	> 100	> 100	> 100										
O=C(NS(=O)(=O)Nc1ccc(Cl)cc1)OCc1ccc(Cl)cc1Cl	> 100	20.6	63	> 100	90.7	52.3	> 100	36	90.2	97.5										
CSC1=Nc2ccccc2N(C)c2c1c(-c1ccccc1)nn2C	> 100	> 100	> 100	31.7	> 100	> 100		> 100	82.7	> 100										
O=[Se]([O-])c1ccccc1.O=[Se]([O-])c1ccccc1.[OH3+].[OH3+].[Pt+2]	11.8	18.2	53.3	> 42.4	20.2	88.4	31.2	32.8	35.5	36.1	2.96	6.37	9.71	3.62	3.03	7.01	10.8	18.5	7.91	12.7
CCC(=O)C(c1ccccc1)c1ccccn1 (stereo not given)	> 100	> 100	> 100		> 100	> 100	> 100	> 100	> 100	> 100										
O=C(Nc1ccc(I)cc1C(=O)NCCO)c1cccs1	> 100	> 100	> 100	> 100	> 100	> 100	> 100	> 100	> 100	> 100										
N#Cc1c(NC(=S)NC(=O)c2ccccc2)nc2c(c1-c1ccccc1)CCC2	> 100	> 100	> 100	> 100	> 100	> 100	> 100	> 100												
CC(C)CC(N)C(=O)OCN1C(=O)C2C3C=CC(C2C1=O)C1C2C(=O)N(COC(=O)C(N)CC(C)C)C(=O)C2C31 (stereo not given)	> 100	> 100	> 100	> 100	> 100	> 100	> 100	> 100	> 100	> 100										
Cc1[nH]c(/C=C2\C(=O)Nc3ccc(S(=O)(=O)Cc4c(Cl)cccc4Cl)cc32)c(C)c1C(=O)N1CCC[C@@H]1CN1CCCC1		4.03	2.57		4.37	12.3	4.55	47.4	53.1	2.75		1.6	1.24		1.88	4.38	1.4	1.99	16	12.5
